The text below walks through data of US20250314668A1, “DNAZYMES FOR SENSING AND IMAGING TARGET MOLECULES” (BOARD OF REGENTS, THE UNIVERSITY OF TEXAS SYSTEM, priority 2024, published 2025).

The nature of data set [1]: Point mutation gel cleavage assay of Fe^2+ H5 DNAzyme and substrate (heat map). In kind it is biochemical. Conditions: 100 μM FeCl2, pH 6.5, anaerobic, overnight; for activity of mutated substrate strand normalized to original Fe^2+ H5 Substrate: original DNAzyme strand; for activity of mutated DNAzyme strand normalized to original Fe^2+ H5 DNAzyme: FAM-labeled original substrate. As to the method: FIG. 7 depicts a heat map illustrating the impact of point mutations within the catalytic core of the Fe^2+ H5 DNAzyme, against the unaltered Fe^2+ H5 substrate strand for comparative analysis with 25 mM Bis Tris, 200 mM NaCl at pH 6.5 with 100 μM FeCl2 in anaerobic conditions. The reaction occurred overnight at room temperature and analyzed by polyacrylamide gel electrophoresis.
FIG. 8 depicts a heat map illustrating the impact of point mutations within the catalytic core of the Fe^2+ H5 Substrate strand, against the unaltered Fe^2+ H5 DNAzyme strand for comparative analysis with 25 mM Bis Tris, 200 mM NaCl at pH 6.5 with 100 μM FeCl2 in anaerobic conditions. The reaction occurred overnight at room temperature and analyzed by polyacrylamide gel electrophoresis.
Point mutations were intentionally introduced into the Fe^2+ H5 DNAzyme, and subsequently assessed in comparison to the unaltered Fe^2+ H5 Substrate under controlled reaction conditions. These conditions include a solution containing 25 mM Bis Tris, 200 mM NaCl at pH 6.5, with concentrations set at 250 nM for both the mutated H5 DNAzyme Strand and the FAM-labeled Original H5 Substrate Strand, alongside 100 μM FeCl2. The reaction proceeded overnight at room temperature under anaerobic conditions, followed by analysis via electrophoresis on a 15% denaturing gel.
Point mutations were intentionally introduced into the Fe^2+ H5 Substrate Strand, and subsequently assessed in comparison to the unaltered Fe^2+ H5 DNAzyme under controlled reaction conditions. These conditions include a solution containing 25 mM Bis Tris, 200 mM NaCl at pH 6.5, with concentrations set at 250 nM for both the Original H5 DNAzyme Strand and the FAM-labeled mutated H5 Substrate Strand, alongside 100 μM FeCl2. The reaction proceeded overnight at room temperature under anaerobic conditions, followed by analysis via electrophoresis on a 15% denaturing gel.

The subject of the next data set is HT1080 cells. The data set is described as follows: Fe^2+ and Fe^3+ imaging in cells treated with SAS and Fer-1, with or without NCOA4 knock down. In kind it is cell-based. How it is done: Ferroptosis is a Fe-related cell death. To understand how Fe^2+ and Fe^3+ have a role in this process, the cells were incubated with Sulfasalazine (SAS), which inhibits System Xc- and induces ferroptosis. Elevated Fe^2+ and Fe^3+ levels, as well as an elevated Fe^3+/Fe^2+ ratio over time, were observed when compared with nontreated controls. This elevation is inhibited by Ferrostatin-1 (Fer-1), an antioxidant that inhibits lipid peroxidation by scavenging alkoxyl radicals. […] This observation indicates the association between Fe levels and lipid peroxidation.
To understand how labile iron and iron redox changes are associated with cell ferroptosis, the study focused on the regulatory effects of NCOA4 on Fe^2+ and Fe^3+. NCOA4 is a key gene that regulates iron homeostasis through ferritinophagy, degrading iron storage protein, and releasing iron into the cell. To understand how NCOA4 influences Fe^2+ and Fe^3+, the study used the CRISPR/Cas technique to knock down NCOA4 expressions. As shown with the western blot, single guide RNAs knocked down the expression of NCOA4 in the HT1080 cells. In these cells, reduced Fe^2+ and Fe^3+ signals were detected as indicated by the DNAzyme sensors. In the meanwhile, the redox ratio of Fe^3+/Fe^2+ elevated, indicating the NCOA4 may not only regulate the labile iron amount but also the Fe redox states.
On the contrary, when inhibiting ferroptosis with Fer-1, reduced Fe^2+ and Fe^3+ levels were observed.

Positions count from the first letter of the chain named. “Also recorded” adds a separate entry of the source. d = 2'-deoxy (DNA); r = 2'-OH (RNA)

With “Fe^2+ H5 Substrate T11C (CGGACCCGTACCAATCTCACGTATAGGATATCCA; DNAzyme; sugars from the 5' end d24 r1 d9, backbone not given here; FAM-labeled in assays, further chemistry not fully specified)”, the “activity of mutated substrate strand normalized to original Fe^2+ H5 Substrate” value in data set [1] is listed as “heightened activity”.

As to `CCOC(=O)c1ccc(NC2CCCCC2)c(N)c1` [Fer-1, Ferrostatin-1], the “effect of Fer-1 on the SAS-induced elevation of Fe levels” value with HT1080 cells (Fer-1 added to SAS-treated cells) is reported as “inhibited; also recorded: reduced”. Besides, the “Fe^2+ and Fe^3+ levels in control guide RNA cells” value in the data set with HT1080 cells is on record as “reduced”. Moreover, in the data set with HT1080 cells (over time), the “Fe^2+ and Fe^3+ levels compared with nontreated controls” value is “slightly reduced”.

Take “Fe^2+ H5 Substrate A13C (CGGACCCGTATCCATCTCACGTATAGGATATCCA; DNAzyme; sugars from the 5' end d24 r1 d9, backbone not given here; FAM-labeled in assays, further chemistry not fully specified)”: the “activity of mutated substrate strand normalized to original Fe^2+ H5 Substrate” value in data set [1] is “heightened activity”.

As to “Fe^2+ H5 Substrate A14T (CGGACCCGTATCATTCTCACGTATAGGATATCCA; DNAzyme; sugars from the 5' end d24 r1 d9, backbone not given here; FAM-labeled in assays, further chemistry not fully specified)”, the “activity of mutated substrate strand normalized to original Fe^2+ H5 Substrate” value in data set [1] was “heightened activity”.

Turning to `O=C(O)c1cc(/N=N/c2ccc(S(=O)(=O)Nc3ccccn3)cc2)ccc1O` [SAS, Sulfasalazine], the “Fe^2+ and Fe^3+ levels in control guide RNA cells” value with HT1080 cells is recorded as “elevated”. In addition, in the data set on HT1080 cells (over time), the “Fe^2+ and Fe^3+ levels compared with nontreated controls” value is recorded as “Elevated”; the “Fe^3+/Fe^2+ ratio compared with nontreated controls” value was “elevated”. For the same molecule, the “increase in Fe^2+ and Fe^3+ levels in NCOA4 downregulated cells” value in the data set on HT1080 cells (similar treatments as control cells) is given as “smaller increase”.

B1: Fe^2+ H5 DNAzyme A39T (nucleic acid)
chain: TGGATATCTCCTAGCCAGACTGTTATGTGTGATACGGCTAACTTCGTGATGCCTCTACGGGTCCG
modifications: DNA, backbone not given here
As to B1, in data set [1], the “activity of mutated DNAzyme strand normalized to original Fe^2+ H5 DNAzyme” value is given as “heightened activity”.

B2: Fe^2+ H5 DNAzyme G51C (nucleic acid)
chain: B1 chain with T39A, G51C
modifications: DNA, backbone not given here
In the case of B2, the “activity of mutated DNAzyme strand normalized to original Fe^2+ H5 DNAzyme” value in data set [1] was “heightened activity”.

B3: Fe^2+ H5 DNAzyme A40C (nucleic acid)
chain: B1 chain with T39A, A40C
modifications: DNA, backbone not given here
In the case of B3, in data set [1], the “activity of mutated DNAzyme strand normalized to original Fe^2+ H5 DNAzyme” value was “heightened activity”.

B4: Fe^2+ H5 DNAzyme A39G (nucleic acid)
chain: B1 chain with T39G
modifications: DNA, backbone not given here
On to B4, for which, in data set [1], the “activity of mutated DNAzyme strand normalized to original Fe^2+ H5 DNAzyme” value is “heightened activity”.

B5: Fe^2+ H5 DNAzyme T54C (nucleic acid)
chain: B1 chain with T39A, T54C
modifications: DNA, backbone not given here
Regarding B5, the “activity of mutated DNAzyme strand normalized to original Fe^2+ H5 DNAzyme” value in data set [1] is recorded as “heightened activity”.

B6: Fe^2+ H5 DNAzyme C52G (nucleic acid)
chain: B1 chain with T39A, C52G
modifications: DNA, backbone not given here
In the case of B6, the “activity of mutated DNAzyme strand normalized to original Fe^2+ H5 DNAzyme” value in data set [1] is on record as “heightened activity”.
